This is an account of results in PMC11012289, “The Discovery of New Inhibitors of Insulin-Regulated Aminopeptidase by a High-Throughput Screening of 400,000 Drug-like Compounds” (International Journal of Molecular Sciences, 2024).

Read-outs that look alike come from different tables or passages of the source. Where no end group is shown, it is not given here. [ ]: non-standard residue; d: D form. Nle = CCCC[C@H](N)C(=O)O

In series [1] the test system is primary hippocampal neuron cultures. Details: method as in PMID 26769413, PMID 36286055. The following applies: cited from earlier work.
For series [2], the target named is IRAP. More on the design: method as in PMID 18716029. The settings on record: cited from earlier work.
The test system of series [3] is APN, ERAP1, ERAP2, and LTA4H. The settings on record: cited from earlier work.
A further series has as its system rodents. More on the design: method as in PMID 19233301, PMID 18716029. The settings on record: intracerebroventricular administration; cited from earlier work.
The conditions of series [4]: cited from earlier work.
Series [5] has as its target T1, IRAP (Homo sapiens, UniProt Q9UIQ6).
T1 construct: The screen was performed with the soluble truncated IRAP enzyme; made in house
In words: Deselection fluorescence IRAP assay with 10 µM zinc. Type of series: biochemical. The settings on record: 10 µM ZnSO4 in assay buffer.

Series [6] has as its target T1, IRAP. In words: Orthogonal absorbance IRAP assay (L-Leucine para-nitroanilide cleavage). Format: biochemical. The following applies: 1 mM L-Leucine p-Nitroanilide, 120 min RT. The essentials: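 Absorbance assay: IRAP protein at 2.5 × 10^−4 mg/mL final with 1 mM L-leucine para-nitroanilide in buffer containing 0.05% BSA; 120 min at RT in the dark. para-Nitroaniline read at 405 nm. Dose–response spanned 20 μM–27.4 nM compound, 1% DMSO.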

Series [7] has as its target T1, IRAP. In words: Primary fluorescence IRAP assay (L-Leucine-7-amido-4-methylcoumarin cleavage). Type of series: biochemical. The settings on record: for Fluorescence pIC50 / IC50: 37.5 µM L-Leucine-7-amido-4-methylcoumarin, 60 min RT, dose-response 20 µM-27.4 nM; for IC50: read-out: Fluorescence IC50; for LipE: calculated from (pIC50Fluorescence − LogD).
Series [8] addresses T1, IRAP. In words: Thermal shift (TSA) IRAP assay. Type of series: binding. The settings on record: screening hits at 30 µM, 1% DMSO.
Details of series [9]: method as in ELF screening history. The following applies: ref ELF screening history, cited from earlier work; for Enzyme Active: number of ELF enzyme screens in which the compound was active; for Targets active: number of ELF screens in which the compound was active; for Enzyme Active %: share of ELF enzyme targets screened; for Targets Active %: share of all ELF targets screened.

In the next series the test system is rats. The settings on record: cited from earlier work.
Series [10] has as its target IRAP. The settings on record: read-out: Ki (affinity to IRAP); cited from earlier work.

T1 sequence (Q9UIQ6 155-1025 limits assumed): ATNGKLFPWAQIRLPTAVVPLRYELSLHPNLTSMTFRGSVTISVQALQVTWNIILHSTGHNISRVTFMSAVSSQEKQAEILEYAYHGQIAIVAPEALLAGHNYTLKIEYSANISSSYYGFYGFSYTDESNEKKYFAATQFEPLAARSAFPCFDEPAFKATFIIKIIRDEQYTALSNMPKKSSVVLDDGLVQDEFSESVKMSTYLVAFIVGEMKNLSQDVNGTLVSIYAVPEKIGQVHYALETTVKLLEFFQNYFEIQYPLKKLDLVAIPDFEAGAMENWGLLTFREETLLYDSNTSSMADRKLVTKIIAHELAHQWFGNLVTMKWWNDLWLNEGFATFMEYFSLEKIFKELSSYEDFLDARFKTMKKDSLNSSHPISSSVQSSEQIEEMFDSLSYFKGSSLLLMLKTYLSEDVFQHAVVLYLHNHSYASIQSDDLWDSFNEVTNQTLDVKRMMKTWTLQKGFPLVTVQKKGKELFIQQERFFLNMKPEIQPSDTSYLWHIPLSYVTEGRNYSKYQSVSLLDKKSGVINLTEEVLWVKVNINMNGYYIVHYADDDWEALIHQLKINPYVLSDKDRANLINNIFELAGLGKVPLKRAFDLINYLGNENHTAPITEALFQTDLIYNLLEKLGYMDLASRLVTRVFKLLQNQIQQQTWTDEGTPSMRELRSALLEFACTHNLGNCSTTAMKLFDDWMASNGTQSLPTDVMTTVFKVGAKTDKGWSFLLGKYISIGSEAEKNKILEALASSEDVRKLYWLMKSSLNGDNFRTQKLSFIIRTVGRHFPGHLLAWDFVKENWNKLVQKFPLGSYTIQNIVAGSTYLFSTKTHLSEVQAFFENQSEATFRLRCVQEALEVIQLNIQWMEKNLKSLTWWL

As for `N[C@H]1CCSSC[C@@H](C(=O)NCc2ccccc2CC(=O)O)NC(=O)C[C@H](Cc2ccc(O)cc2)NC1=O` [HA08], in series [1], the “effect on hydrogen peroxide-induced toxicity” value is recorded as “reversed hydrogen peroxide-induced toxicity” and the “effect on spine density” value is “enhanced spine densities”.
One may read the Ki as the equilibrium dissociation constant of an inhibitor or competing ligand from its target. On to `CCOC(=O)C1=C(NC(C)=O)Oc2cc(O)ccc2C1c1cccnc1` (stereo not drawn) [HFI-419], for which, on IRAP [2], the Ki is 0.42 µM. For the same compound, the “selectivity versus other aminopeptidases” value in series [3] is recorded as “high selectivity”. The effect on cognition entry in the series on rodents is reported as “cognitive-enhancing effect”.
Regarding `CCOC(=O)C1=C(NC(C)=O)Oc2cc(O)ccc2C1c1cnc2ccccc2c1` (stereo not drawn) [HFI-437], at IRAP [2], the Ki was 0.02 µM.
Consider `CC[C@H](C)[C@H](NC(=O)[C@H](Cc1ccc(O)cc1)NC(=O)[C@@H](CN)C(C)C)C(=O)N[C@H]1Cc2c([nH]c3ccccc23)CN(CC(=O)N[C@@H](Cc2ccccc2)C(=O)O)C1=O` [IVDE77], for which the metabolic stability result in series [4] is given as “improved metabolic stability”.
As usually defined, the IC50 is the midpoint of a concentration-inhibition curve. For `CCn1c(=O)n(CC(=O)N(C)CCc2ccc(O)c3[nH]c(=O)sc23)c2ccccc21` [QHL45], the “Fluorescence + Zn pIC50” value at IRAP [5] is given as 5.12. Further, the “Absorbance pIC50” value on IRAP [6] worked out at 6.09. Moreover, at IRAP [7], the “Fluorescence pIC50” value amounted to 5.11, the IC50 was 7.76 µM and the LipE was 2.74. In addition, on IRAP [8], the “TSA (∆°C), thermal shift of IRAP” value came to 0.89 °C. In addition, in series [9], the “Enzyme Active” value is 5, the Targets active is recorded as 11, the “Enzyme Active %” value is given as 6.0% and the “Targets Active %” value was 7.9%.
In the case of `COCCN1CCc2cnc(NCc3ccc(S(N)(=O)=O)cc3)cc21` [QHL47], the “Fluorescence + Zn pIC50” value at IRAP [5] worked out at 4.99. Besides, on IRAP [6], the “Absorbance pIC50” value is 5.51. For the same compound, on IRAP [7], the “Fluorescence pIC50” value came to 4.99, the IC50 stood at 10.2 µM and the LipE is given as 3.57. In addition, the “TSA (∆°C), thermal shift of IRAP” value on IRAP [8] came out at 0.3 °C. Moreover, in series [9], the “Enzyme Active” value is given as 4, the Targets active is on record as 6, the “Enzyme Active %” value is listed as 4.7% and the “Targets Active %” value is on record as 4.2%.
For the compound `Cc1cc2nc(N)n(Cc3ccccc3)c2cc1C` [QHL49], the “Fluorescence + Zn pIC50” value on IRAP [5] turned out to be 4.74. In addition, the “Absorbance pIC50” value on IRAP [6] is recorded as 5.65. Besides, at IRAP [7], the “Fluorescence pIC50” value came to 4.75, the IC50 turned out to be 17.8 µM and the LipE is recorded as 0.76. Moreover, the “TSA (∆°C), thermal shift of IRAP” value at IRAP [8] was 0.44 °C. In [9], the “Enzyme Active” value was 4, the Targets active is 9, the “Enzyme Active %” value is recorded as 4.9% and the “Targets Active %” value was 6.2%.
For `c1ccn(CCCSc2nnc3ccc(N4CCCC4)nn23)c1` [QHL50], the “Fluorescence + Zn pIC50” value on IRAP [5] is 4.7. Also, the “Absorbance pIC50” value at IRAP [6] is listed as 5.36. Further, at IRAP [7], the “Fluorescence pIC50” value was determined as 4.74, the IC50 was determined as 18.2 µM and the LipE is recorded as 2.06. Moreover, the “TSA (∆°C), thermal shift of IRAP” value at IRAP [8] is 0.44 °C. In series [9], the “Enzyme Active” value is recorded as 7, the Targets active was 11, the “Enzyme Active %” value was 8.1% and the “Targets Active %” value is reported as 7.6%.
In the case of “Leu-Val-Val-Tyr-Pro-Trp-Thr-Gln-Arg-Phe (LVVYPWTQRF; printed: Leu-Val-Val-Tyr-Pro-Trp-Thr-Gln-Arg-Phe) [LVV-hemorphin-7, structural analog of Ang IV]”, in the series with rats, the “effect on memory retention and retrieval” value was “strong promoters of memory retention and retrieval”.
As to “Nle-Tyr-Ile-His-Pro-Phe ([Nle]YIHPF) [Nle-Ang IV, structural analog of Ang IV]”, in the series on rats, the “effect on memory retention and retrieval” value is “strong promoters of memory retention and retrieval”.
In the case of Val-Tyr-Ile-His-Pro-Phe [Ang IV], the “effect on memory and learning” value with rats (intracerebroventricular injection) is “improved memory and learning”. Further, at IRAP [10], the Ki is 0.062 µM.
